Values quoted from earlier work in paper PMC10837402, “Unnatural amino acid substitutions to improve in vivo stability and tumor uptake of ^68Ga-labeled GRPR-targeted TacBOMB2 derivatives for cancer imaging with positron emission tomography” (EJNMMI Radiopharmacy and Chemistry, 2024).

How the values were obtained:
GRPR [1] = biological target: T1, GRPR (Homo sapiens, UniProt P30550); conditions: vs Ac-Bombesin(7–14); ref Horwell et al. 1996; cited from earlier work
T1 construct: generated using GRPR-expressing PC-3 cells; endogenous in cells; host or cells: PC-3 cells
T1 sequence (P30550 whole entry): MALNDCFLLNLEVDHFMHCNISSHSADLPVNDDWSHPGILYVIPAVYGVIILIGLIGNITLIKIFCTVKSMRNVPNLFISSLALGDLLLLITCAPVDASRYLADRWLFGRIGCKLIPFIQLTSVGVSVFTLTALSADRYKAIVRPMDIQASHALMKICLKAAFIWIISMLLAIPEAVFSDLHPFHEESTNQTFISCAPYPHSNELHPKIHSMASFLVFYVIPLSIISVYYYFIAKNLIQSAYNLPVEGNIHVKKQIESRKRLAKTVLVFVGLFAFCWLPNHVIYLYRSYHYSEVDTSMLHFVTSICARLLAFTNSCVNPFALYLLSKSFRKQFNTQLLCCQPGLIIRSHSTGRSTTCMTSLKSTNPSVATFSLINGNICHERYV

[2] = tested on: GRPR-expressing PC-3 tumor xenografts; conditions: mouse, in vivo, 1 h; cited from earlier work
GRPR [3] = biological target: T1, GRPR; design: method as in Wang et al. [2023]; conditions: previously reported; ref Wang et al. [2023]; read-out: GRPR binding affinity (Ki); cited from earlier work

Row | Substance | Reduction in GRPR binding affinity caused by NMe-Gly^11 substitution (GRPR [1]) | Uptake in PC-3 tumor [2] | Uptake in adrenal glands [2] | Uptake in blood [2] | Uptake in bone [2] | Uptake in brain [2] | Uptake in fat [2] | Uptake in heart [2] | Uptake in kidneys [2] | Uptake in liver [2] | Uptake in lungs [2] | Uptake in muscle [2] | Uptake in pancreas [2] | Uptake in small intestine [2] | Uptake in spleen [2] | Uptake in stomach [2] | Uptake in testes [2] | Ki (GRPR [3])
1 | Ac-[NMe-Gly^11]Bombesin(7–14) | > 30 fold |  |  |  |  |  |  |  |  |  |  |  |  |  |  |  |  | 
2 | ^68Ga-DOTA-Pip-D-Phe^6-Gln^7-Trp^8-Ala^9-Val^10-Gly^11-His^12-Leu^13-Thz^14-NH2 [[^68Ga]Ga-TacBOMB2] |  | 5.95 %ID/g | 0.52 ± 0.11 %ID/g | 0.39 ± 0.12 %ID/g | 0.26 ± 0.11 %ID/g | 0.03 ± 0.01 %ID/g | 0.10 ± 0.03 %ID/g | 0.14 ± 0.02 %ID/g | 2.43 ± 0.16 %ID/g | 0.29 ± 0.13 %ID/g | 0.39 ± 0.10 %ID/g | 0.13 ± 0.08 %ID/g | 1.30 ± 0.14 %ID/g | 0.60 ± 0.12 %ID/g | 0.27 ± 0.10 %ID/g | 0.54 ± 0.27 %ID/g | 0.16 ± 0.05 %ID/g | 7.62 nM
